In ChEMBL document CHEMBL4480432, “Expansion of a novel lead targeting M. tuberculosis DHFR as antitubercular agents” (Bioorg Med Chem, 2019):
Converted amounts (≈) assume the structure as drawn.

Tests used:
[1] = Sub-acute toxicity in albino Wistar rat assessed as effect on somatomotor system at 1.25 to 10 mg/kg, po administered for 28 days; assay type: organism-based; conditions: in vivo, 672 h
[2] = Sub-acute toxicity in albino Wistar rat assessed as change in central nervous system at 1.25 to 10 mg/kg, po administered for 28 days; assay type: organism-based; conditions: in vivo, 672 h
[3] = Sub-acute toxicity in albino Wistar rat assessed as change in Urea level at 2.5 mg/kg, po administered for 28 days measured post last dose (reference value: 24.54 +/- 2.12 mg/dl); assay type: organism-based; conditions: in vivo, 672 h
[4] = Sub-acute toxicity in albino Wistar rat assessed as change in serum protein level at 10 mg/kg, po administered for 28 days measured post last dose (reference value: […]); assay type: organism-based; conditions: in vivo, 672 h
[5] = Sub-acute toxicity in albino Wistar rat assessed as change in colour at 1.25 to 10 mg/kg, po administered for 28 days; assay type: organism-based; conditions: in vivo, 672 h
[6] = Sub-acute toxicity in albino Wistar rat assessed as effect on behavioral changes at 1.25 to 10 mg/kg, po administered for 28 days; assay type: organism-based; conditions: in vivo, 672 h
[7] = Sub-acute toxicity in albino Wistar rat assessed as effect on clinical changes at 1.25 to 10 mg/kg, po administered for 28 days; assay type: organism-based; conditions: in vivo, 672 h
[8] = Sub-acute toxicity in albino Wistar rat assessed as change in SOD level per mg protein at 2.5 mg/kg, po administered for 28 days measured post last dose (reference value: 4.85 +/- 0.34 U); assay type: organism-based; conditions: in vivo, 672 h
[9] = Sub-acute toxicity in albino Wistar rat assessed as change in serum protein level at 5 mg/kg, po administered for 28 days measured post last dose (reference value: […]); assay type: organism-based; conditions: in vivo, 672 h
[10] = Sub-acute toxicity in albino Wistar rat assessed as effect on water intake at 1.25 to 10 mg/kg, po administered for 28 days measured post last dose; assay type: organism-based; conditions: in vivo, 672 h
Dihydrofolate reductase = biological target: T1, Dihydrofolate reductase (Homo sapiens, UniProt P00374); assay: Inhibition of human DHFR assessed as reduction in consumption of NADPH using DHF as substrate preincubated for 1 min followed by DHF addition and measured for 2 mins by spectrophotometric method
T1 sequence (P00374 whole entry): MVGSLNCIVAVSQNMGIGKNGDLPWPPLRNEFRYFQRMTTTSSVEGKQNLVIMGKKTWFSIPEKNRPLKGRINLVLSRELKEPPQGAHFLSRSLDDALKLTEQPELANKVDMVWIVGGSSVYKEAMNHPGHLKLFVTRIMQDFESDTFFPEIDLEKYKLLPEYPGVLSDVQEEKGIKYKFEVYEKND

[11] = Sub-acute toxicity in albino Wistar rat assessed as effect on neurological changes at 1.25 to 10 mg/kg, po administered for 28 days; assay type: organism-based; conditions: in vivo, 672 h
[12] = system: DHFR (human versus Mycobacterium tuberculosis H37Rv); assay: Selectivity index, ratio of IC50 for human DHFR to IC50 for Mycobacterium tuberculosis H37Rv DHFR expressed in Escherichia coli BL21(DE3); assay type: toxicity; conditions: human and Mycobacterium tuberculosis H37Rv; read-out: Ratio IC50
[13] = Sub-acute toxicity in albino Wistar rat assessed as change in AST level at 5 mg/kg, po administered for 28 days measured post last dose (reference value: 25 +/- 1.76 U/L); assay type: organism-based; conditions: in vivo, 672 h
[14] = Sub-acute toxicity in albino Wistar rat assessed as effect on skin at 1.25 to 10 mg/kg, po administered for 28 days; assay type: organism-based; conditions: in vivo, 672 h
[15] = system: Mycobacterium tuberculosis; assay: microbe, parasite or virus in culture; conditions: H37Rv ATCC 27294, 168 h
Description: Antitubercular activity against Mycobacterium tuberculosis H37Rv ATCC 27294 after 7 days by microplate alamar blue method

[16] = Sub-acute toxicity in albino Wistar rat assessed as change in hemoglobin level at 2.5 mg/kg, po administered for 28 days measured post last dose (reference value: 12.14 +/- 1.45 g%); assay type: organism-based; conditions: in vivo, 672 h
[17] = Sub-acute toxicity in albino Wistar rat assessed as change in SOD level per mg protein at 10 mg/kg, po administered for 28 days measured post last dose (reference value: 4.85 +/- 0.34 U); assay type: organism-based; conditions: in vivo, 672 h
[18] = Sub-acute toxicity in albino Wistar rat assessed as change in ALT level at 10 mg/kg, po administered for 28 days measured post last dose (reference value: 12.19 +/- 1.78 U/L); assay type: organism-based; conditions: in vivo, 672 h
[19] = Sub-acute toxicity in albino Wistar rat assessed as lethargy at 1.25 to 10 mg/kg, po administered for 28 days; assay type: organism-based; conditions: in vivo, 672 h
[20] = Sub-acute toxicity in albino Wistar rat assessed as change in MDA level per mg protein at 5 mg/kg, po administered for 28 days measured post last dose (reference value: 0.91 +/- 0.1 nmol); assay type: organism-based; conditions: in vivo, 672 h
[21] = Sub-acute toxicity in albino Wistar rat assessed as convulsion at 1.25 to 10 mg/kg, po administered for 28 days; assay type: organism-based; conditions: in vivo, 672 h
[22] = Sub-acute toxicity in albino Wistar rat assessed as adverse effect at 1.25 to 10 mg/kg, po administered for 28 days; assay type: organism-based; conditions: in vivo, 672 h
[23] = Sub-acute toxicity in albino Wistar rat assessed as change in CAT level per mg protein at 10 mg/kg, po administered for 28 days measured post last dose (reference value: 28.45 +/- 2.1 U); assay type: organism-based; conditions: in vivo, 672 h
[24] = Sub-acute toxicity in albino Wistar rat assessed as change in body weight at 1.25 to 10 mg/kg, po administered for 28 days; assay type: organism-based; conditions: in vivo, 672 h
[25] = Sub-acute toxicity in albino Wistar rat assessed as change in MDA level per mg protein at 1.25 mg/kg, po administered for 28 days measured post last dose (reference value: 0.91 +/- 0.1 nmol); assay type: organism-based; conditions: in vivo, 672 h
[26] = Sub-acute toxicity in albino Wistar rat assessed as effect on sleep at 1.25 to 10 mg/kg, po administered for 28 days; assay type: organism-based; conditions: in vivo, 672 h
[27] = Sub-acute toxicity in albino Wistar rat assessed as change in CAT level per mg protein at 2.5 mg/kg, po administered for 28 days measured post last dose (reference value: 28.45 +/- 2.1 U); assay type: organism-based; conditions: in vivo, 672 h
[28] = Sub-acute toxicity in albino Wistar rat assessed as change in autonomic nervous system at 1.25 to 10 mg/kg, po administered for 28 days; assay type: organism-based; conditions: in vivo, 672 h
[29] = Sub-acute toxicity in albino Wistar rat assessed as change in Urea level at 10 mg/kg, po administered for 28 days measured post last dose (reference value: 24.54 +/- 2.12 mg/dl); assay type: organism-based; conditions: in vivo, 672 h
[30] = Sub-acute toxicity in albino Wistar rat assessed as salivation at 1.25 to 10 mg/kg, po administered for 28 days; assay type: organism-based; conditions: in vivo, 672 h
[31] = Sub-acute toxicity in albino Wistar rat assessed as change in AST level at 10 mg/kg, po administered for 28 days measured post last dose (reference value: 25 +/- 1.76 U/L); assay type: organism-based; conditions: in vivo, 672 h
[32] = Sub-acute toxicity in albino Wistar rat assessed as change in AST level at 1.25 mg/kg, po administered for 28 days measured post last dose (reference value: 22.5 +/- 1.76 U/L); assay type: organism-based; conditions: in vivo, 672 h
[33] = Sub-acute toxicity in albino Wistar rat assessed as change in serum protein level at 2.5 mg/kg, po administered for 28 days measured post last dose (reference value: […]); assay type: organism-based; conditions: in vivo, 672 h

CC(=O)c1c(C)n(Cc2ccccc2)c2ccc(OCc3cn(-c4ccc(Br)cc4)nn3)cc12
Activity [1]: Non-Toxic | Activity [2]: Non-Toxic | Activity [3]: 26.54 mg/dL | Activity [4]: 7.76 mg/dL | Activity [5]: Non-Toxic | Activity [6]: Non-Toxic | Activity [7]: Non-Toxic | Activity [8]: 5.01 U | Activity [9]: 7.54 mg/dL | Activity [10]: Non-Toxic | IC50 (Dihydrofolate reductase): 125 µM | Activity [11]: Non-Toxic | selectivity ratio [12]: 18.4 | Activity [13]: 26.75 U/L | Activity [14]: Non-Toxic | MIC [15]: 3.03 µM (≈ 1.56 µg/mL) | Activity [16]: 12.83 g% | Activity [17]: 5.56 U | Activity [18]: 15.23 U/L | Activity [19]: Non-Toxic | Activity [20]: 1.11 nmol | Activity [21]: Non-Toxic | Activity [22]: Non-Toxic | Activity [23]: 32.45 U | Activity [24]: Toxic | Activity [25]: 0.95 nmol | Activity [26]: Non-Toxic | Activity [27]: 30.11 U | Activity [28]: Non-Toxic | Activity [29]: 27.54 mg/dL | Activity [30]: Non-Toxic | Activity [31]: 26.98 U/L | Activity [32]: 23.43 U/L | Activity [33]: 7.32 mg/dL
